Source: publication PMC10343216 (Molecules, 2023)
Several values for one entry are separate records, joined by “and”; a condition that tells them apart may be missing. Equal entries are not always repeated. Where two headings read alike, the source gives them in different places.

Legend:
[1] = ZINC database ref 39; cited from earlier work
rat 11β-HSD1 = target: T1, rat 11β-HSD1 (Rattus norvegicus, UniProt P16232); experiment: Rat 11β-HSD1 assay in rat liver microsomes (DHC to CORT, HPLC-MS/MS); format: biochemical; conditions: for remaining activity at 100 µM: read-out: 11β-HSD1 residual activity relative to the control (DMSO); for Mode Action: rat 11β-HSD1, judged by α and Lineweaver-Burk plot; for α (mixed model): rat liver 11β-HSD1
T1 construct: Rat 11β-HSD1 in liver microsomes catalyzes the conversion of DHC to CORT; from tissue; host or cells: liver microsomes of male Sprague-Dawley rats (age 3 months), prepared in house
Protocol: The preparation of rat liver microsomes was carried out as previously reported. In this preparation procedure, rat livers were homogenized in sucrose (0.25 M) containing PBS (0.01 M, pH 7.2). […] The pellets were resuspended in cold PBS by homogenization, and the concentration of microsomal protein was determined using the Bio-Rad Protein Assay Kit (CAT#: P0010; Beyotime, Jiangsu, China) according to the manufacturer’s instructions.
(§1) The 11β-HSD1 activity was determined by measuring the reductive catalysis of 11keto-steroid substrates, cortisone for human 11β-HSD1 and DHC for rat 11β-HSD1, which were converted to cortisol and CORT, respectively. The 11β-HSD1 assay was carried out as previously described with a minor modification. […] At the end of the reaction, acetonitrile (200 µL, CAT#: UN1648; Sigma) and internal standard testosterone-d5 (IS, T-d5, 10 μL, Zzbio, Shanghai, China) were added to the system, the organic layer was extracted, and 10 µL was injected into the HPLC-MS/MS system to measure cortisol, or CORT, as previously described.
(§2) The amount of cortisol, or CORT, in the organic layer was determined using an Acquity UPLC equipped with a BEH C18 column (2.1 mm, 50 mm, 1.7 m) and a 0.2 mm stainless steel frit filter and an XEVO TQD triple quadrupole mass spectrometer (Waters, Milford, MA, USA), as previously described. The mobile phase was a mixture of solvents A (0.1% formic acid in water) and B (acetonitrile) combined in the following gradient program: 5–5% B (0–0.5 min), 5–95% B (0.5–1.0 min), 95–95% B (1.0–2.0 min), and 95–5% B (2.0–2.1 min). The injection volume was 6 µL, and the flow rate was 0.40 mL/min. Before the second injection, a re-equilibration period of 0.9 min was set. The temperatures were 4 °C for the sample and 40 °C for column. Mass spectrometric detection was carried out using a Waters Corporation XEVO TQD triple quadruple mass spectrometer with an ESI source. For cortisol and IS, the multiple reaction monitoring mode transitions were m/z 358.3→340.3 and m/z 237.2→194.3. Data collection and instrument control were performed using Masslynx 4.1 software (Waters Corp., Milford, MA, USA). Cortisol, or CORT, standards were prepared by dissolving them in methanol. […] The enzymatic activity obtained by measuring the conversion rate (%) of cortisone to cortisol for human 11β-HSD1 or DHC to CORT for rat 11β-HSD1 was calculated.
(§3) The time curve of the 11β-HSD1 reaction was prepared by a linear regression using GraphPad version 8.0 (GraphPad, San Diego, CA, USA). […] The lineweaver-Burk plot after linear regression was also carried out to judge the mode of action.

human 11β-HSD1 = target: T2, human 11β-HSD1 (Homo sapiens, UniProt P28845); experiment: Human 11β-HSD1 assay in human liver microsomes (cortisone to cortisol, HPLC-MS/MS); format: biochemical; conditions: for IC50 / remaining activity at 100 µM: 200 nM cortisone, 15 min; for IC50: Mean ± SEM, n = 4; for remaining activity at 100 µM: human, 100 µM compound, read-out: 11β-HSD1 residual activity relative to the control (DMSO); for Mode Action: human 11β-HSD1, judged by α and Lineweaver-Burk plot
T2 construct: Human 11β-HSD1 in liver microsomes catalyzes the conversion of cortisone to cortisol; tissue Iphase (Beijing, China) H2610; host or cells: human liver microsomes (purchased)
Protocol: as §1, §2, §3

[2] = rat, 100 µM compound, 200 nM DHC, 15 min
[3] = human liver microsomes, read-out: IC50
[4] = substrate, rat liver microsomes, Michaelis-Menten
[5] = substrate, human liver microsomes, Michaelis-Menten

T2 sequence (P28845 whole entry): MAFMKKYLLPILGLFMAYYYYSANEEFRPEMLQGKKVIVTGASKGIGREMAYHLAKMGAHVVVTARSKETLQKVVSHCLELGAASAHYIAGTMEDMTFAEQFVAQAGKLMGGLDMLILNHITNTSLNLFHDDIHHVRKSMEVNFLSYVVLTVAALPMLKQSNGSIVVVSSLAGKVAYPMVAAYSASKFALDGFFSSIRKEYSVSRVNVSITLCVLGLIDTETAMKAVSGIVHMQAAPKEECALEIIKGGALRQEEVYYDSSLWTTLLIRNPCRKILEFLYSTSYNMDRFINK
T1 sequence (P16232 whole entry): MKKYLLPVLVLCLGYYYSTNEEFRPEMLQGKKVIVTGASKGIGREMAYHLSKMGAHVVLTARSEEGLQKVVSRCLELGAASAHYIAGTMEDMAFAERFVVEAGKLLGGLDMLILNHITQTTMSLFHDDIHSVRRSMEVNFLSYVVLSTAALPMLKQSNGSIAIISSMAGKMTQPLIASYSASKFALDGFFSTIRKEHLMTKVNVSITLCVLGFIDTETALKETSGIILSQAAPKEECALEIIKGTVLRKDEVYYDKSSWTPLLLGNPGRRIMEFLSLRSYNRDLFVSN

Row | SMILES | LogP [1] | IC50 (rat 11β-HSD1) [µM] | remaining activity at 100 µM (rat 11β-HSD1; [2]) [%] | IC50 (human 11β-HSD1; IC50, human liver microsomes) [µM] | remaining activity at 100 µM (human 11β-HSD1) [%] | Mode Action (human 11β-HSD1) | Ki (human 11β-HSD1) [µM] | further results
1 | CC(C)(c1ccc(O)cc1)c1ccc(O)cc1 [BPA, bisphenol A, reference compound] | 3.424 and 3.42 | 36.8 ± 1.09 | ≤ 50 | 297 ± 2.99 | > 50 | – | – | –
2 | COc1ccc(C(C)(C)c2ccc(OC)cc2)cc1 [BPAME, 4,4′-(propane-2,2-diyl)bis(methoxybenzene)] | 4.03 | – | > 50 | – | ≤ 50 | competitive inhibitors | – | IC50 (rat 11β-HSD1; rat liver microsomes, 200 nM DHC, 15 min, Mean ± SEM, n = 4, read-out: IC50): 206 ± 2.16 µM; IC50 (human 11β-HSD1; [3]): 33.1 ± 0.57 µM; Ki (human 11β-HSD1; human liver microsomes, enzyme kinetics-inhibition (mixed model), read-out: Ki (inhibition constant, measured)): 33.8 µM
3 | CC(C)c1cc(C(C)(C)c2ccc(O)c(C(C)C)c2)ccc1O [BPG, 4,4′-(propane-2,2-diyl)bis(2-isopropylphenol)] | 5.671 | 104 ± 1.52 | ≤ 50 | 5.06 ± 0.07 | ≤ 50 | competitive inhibitors | 5.33 | Ki (rat 11β-HSD1): 88.6 µM; Mode Action (rat 11β-HSD1): mixed/competitive inhibitors; α (mixed model) (rat 11β-HSD1): 5.78
4 | CC(C)(c1ccc(O)c(-c2ccccc2)c1)c1ccc(O)c(-c2ccccc2)c1 [BPH, 2,2-bis(2-hydroxy-5-biphenylyl)propane] | 6.758 | 74.2 ± 0.98 | ≤ 50 | 0.75 ± 0.02 | ≤ 50 | competitive inhibitors | 0.44 | Ki (rat 11β-HSD1): 74.6 µM; Mode Action (rat 11β-HSD1): mixed/competitive inhibitors; α (mixed model) (rat 11β-HSD1): ∞
5 | C=CCc1cc(C(C)(C)c2ccc(O)c(CC=C)c2)ccc1O [DABPA, 2,2′-diallyl BPA] | 4.881 | 132 ± 1.66 | > 50 | 13.4 ± 0.19 | ≤ 50 | competitive inhibitors | 14 | –
6 | C[C@]12CC(=O)[C@H]3[C@@H](CCC4=CC(=O)CC[C@@]43C)[C@@H]1CC[C@@H]2C(=O)CO [DHC, 11-dehydrocorticosterone, reference compound] | – | – | – | – | – | – | – | Km (rat 11β-HSD1; [4]): 940 ± 90 nM; Vmax (rat 11β-HSD1; [4]): 1072 ± 115.5 pmol/mg/min
7 | Cc1cc(C(C)(C)c2ccc(O)c(C)c2)ccc1O [DMBPA, 2,2-bis(4-hydroxy-3-methylphenyl)propane] | 4.041 and 4.04 | – | > 50 | 30.2 ± 0.71 | ≤ 50 | competitive inhibitors | 31 | –
8 | Cc1cc(C(C)(C)c2cc(C)c(O)c(C)c2)cc(C)c1O [TMBPA, 2,2-bis(4-hydroxy-3,5-dimethylphenyl)propane] | – | – | – | – | > 50 | – | – | 11β-HSD1 residual activity relative to the control (DMSO) (rat 11β-HSD1; [2]): ineffective; IC50 (human 11β-HSD1; [3]): 319.2 ± 2.78 µM
9 | C[C@]12CCC(=O)C=C1CC[C@@H]1[C@@H]2C(=O)C[C@@]2(C)[C@H]1CC[C@]2(O)C(=O)CO [cortisone, reference compound] | – | – | – | – | – | – | – | Km (human 11β-HSD1; [5]): 930 ± 220 nM; Vmax (human 11β-HSD1; [5]): 253.2 ± 20.5 pmol/mg/min
